{"source": "patent US20250333437A1", "about": "“USE OF NON-INFORMAT[…] CHAINS TO MODIFY THE […] PEPTIDES” (priority 2022, published 2025)", "assay": "Solubility of the poison ivy antigen in water and ethanol", "format": "physicochemical", "text": "The present inventors discovered the phenomenon of tissue deposition by precipitation (TDBP) with an allergy vaccine that was a catechol and naturally had the requisite solubility properties to achieve TDBP. In particular, the poison ivy antigen that induced tolerance when precipitated in muscle by precipitation is a catechol which is naturally insoluble in water and for which effective doses are soluble in small volumes of the pharmaceutically acceptable water-miscible solvent ethanol. The inventors termed the phenomenon vaccine delivery by precipitation (VDBP) which is a preferred embodiment of TDBP and they interpreted its probable mechanism of action.\nFIG. 1 is a graphic representation of the function of the adaptive immune system in the skin, reproduced from Teunissen on intradermal immunization. It is a cartoon of how immunomodulation takes place. […] These recognize and take up molecules or particles of an antigen which they then present to naive T lymphocytes which then mature along one of what are shown here as seven different pathways. The location is the cortex of a lymph node. Dendritic cells (DC's) from either homeostatic or inflamed tissue present antigenic epitopes in their MHC Class Il molecular grooves, to naive T lymphocytes (Tn). […]", "data": [{"substance": "urushiol [poison ivy antigen]", "values": [{"measurement": "solubility in ethanol", "setting": "effective doses in small volumes of ethanol", "result": "soluble"}, {"measurement": "solubility in water", "setting": "water", "result": "insoluble"}]}]}
